Data as given in US20190209645A1, “POTENTIATION OF ANTIBIOTIC ACTIVITY BY A NOVEL CATIONIC PEPTIDE, SPR741” (priority 2016, published 2019).
Bridge positions count the residues as written; N and C are the ends. Square brackets hold non-standard residues; d marks the D form. Peptide text beside a SMILES is read from it. Dab = NCC[C@H](N)C(=O)O

What was measured:
[1] = system: Acinetobacter baumannii (Ab) MDR and clinical isolates; assay: Susceptibility testing (MIC, CLSI M7-A10) of antibiotics with SPR741; type: cell-based; settings: for order of potentiation of the antibiotics by SPR741: 17 Ab isolates, Mueller-Hinton broth-II with 0, 2 or 8 μg/mL SPR741
Protocol: (§1) Assays were performed against 25 Escherichia coli (Ec), 25 Klebsiella pneumoniae (Kp), and 17 Acinetobacter baumannii (Ab) MDR and clinical isolates, in Mueller-Hinton broth-II (cation adjusted) containing 0, 2 or 8 μg/mL SPR741. The minimum inhibitory concentration (MIC) was defined as the lowest concentration of antibiotic required to inhibit visible bacterial growth. MIC values were determined for each antibiotic/SPR741 combination and maximum reductions in MIC of the antibiotic in the combination were determined.

[2] = system: Escherichia coli (Ec) MDR and clinical isolates; assay: as above; type: cell-based; settings: for order of potentiation of the antibiotics by SPR741: 25 Ec isolates, Mueller-Hinton broth-II with 0, 2 or 8 μg/mL SPR741
Protocol: as §1

[3] = system: Klebsiella pneumoniae (Kp) MDR and clinical isolates; assay: as above; type: cell-based; settings: for order of potentiation of the antibiotics by SPR741: 25 Kp isolates, Mueller-Hinton broth-II with 0, 2 or 8 μg/mL SPR741
Protocol: as §1

[4] = Minimum bactericidal concentration of combinations in the presence of 5% surfactant (Survanta); type: cell-based; settings: in combination with SPR741; with or without 5% Survanta
Protocol: (§2) Efficacy was assessed in checkerboard assays. The minimum inhibitory concentration (MIC) of SPR741, antibiotics, and combinations thereof was defined as the lowest concentration that inhibited growth of Ec ATCC 25922, Ab NCTC 12156 and Kp ATCC 43816. Ec BW25113, ΔtolC and ΔacrA were used to assess the contribution of the multi drug efflux pump AcrAB-TolC to susceptibility to the combinations. Interactions were assessed by calculating fractional inhibitory concentration indices (FICI) for each combination in which the MIC differed from compounds in isolation. Interactions were defined as: FICI>4, antagonism; 0.5-4, no interaction; <0.5, synergy. The minimum bactericidal concentration of combinations in the presence of 5% surfactant (Survanta) was also determined.

[5] = system: Ec BW25113, ΔtolC and ΔacrA; assay: Contribution of efflux pump AcrAB-TolC to susceptibility to the combinations; type: cell-based, Escherichia coli
Protocol: as §2

[6] = system: Gram negative bacteria; settings: previously shown; cited from earlier work
[7] = Kp isolates, in combination with SPR741

| SMILES | order of potentiation of the antibiotics by SPR741 [1] | order of potentiation of the antibiotics by SPR741 [2] | order of potentiation of the antibiotics by SPR741 [3] | also measured |
| --- | --- | --- | --- | --- |
| CC[C@H]1OC(=O)[C@H](C)[C@@H](O[C@H]2C[C@@](C)(OC)[C@@H](O)[C@H](C)O2)[C@H](C)[C@@H](O[C@@H]2O[C@H](C)C[C@H](N(C)C)[C@H]2O)[C@](C)(O)C[C@@H](C)CN(C)[C@H](C)[C@@H](O)[C@]1(C)O [AZ, azithromycin] | FA>RIF>CLR>RET>MEM>AZ>AZT>MUP | RIF>MUP=FA>AZ=RET>AZT>MEM=CLR | RET>RIF=AZ=CLR>MUP>MEM=FA>AZT | – |
| C[C@H]1[C@H](NC(=O)/C(=N\OC(C)(C)C(=O)O)c2csc(N)n2)C(=O)N1S(=O)(=O)O [AZT, aztreonam] | FA>RIF>CLR>RET>MEM>AZ>AZT>MUP | RIF>MUP=FA>AZ=RET>AZT>MEM=CLR | – | – |
| CC[C@H]1OC(=O)[C@H](C)[C@@H](O[C@H]2C[C@@](C)(OC)[C@@H](O)[C@H](C)O2)[C@H](C)[C@@H](O[C@@H]2O[C@H](C)C[C@H](N(C)C)[C@H]2O)[C@](C)(OC)C[C@@H](C)C(=O)[C@H](C)[C@@H](O)[C@]1(C)O [CLR, clarithromycin] | FA>RIF>CLR>RET>MEM>AZ>AZT>MUP | RIF>MUP=FA>AZ=RET>AZT>MEM=CLR | RET>RIF=AZ=CLR>MUP>MEM=FA>AZT | bactericidal activity (minimum bactericidal concentration) of the combination [4]: bactericidal at concentrations similar to the MIC irrespective of the presence of Survanta |
| CC(=O)O[C@H]1C[C@@]2(C)[C@@H](C[C@@H](O)[C@H]3[C@@]4(C)CC[C@@H](O)[C@@H](C)[C@@H]4CC[C@@]32C)/C1=C(\CCC=C(C)C)C(=O)O [FA, fusidic acid] | FA>RIF>CLR>RET>MEM>AZ>AZT>MUP | RIF>MUP=FA>AZ=RET>AZT>MEM=CLR | RET>RIF=AZ=CLR>MUP>MEM=FA>AZT | – |
| C[C@@H](O)[C@H]1C(=O)N2C(C(=O)O)=C(S[C@@H]3CN[C@H](C(=O)N(C)C)C3)[C@H](C)[C@H]12 [MEM, meropenem] | FA>RIF>CLR>RET>MEM>AZ>AZT>MUP | RIF>MUP=FA>AZ=RET>AZT>MEM=CLR | RET>RIF=AZ=CLR>MUP>MEM=FA>AZT | – |
| C/C(=C\C(=O)OCCCCCCCCC(=O)O)C[C@@H]1OC[C@H](C[C@@H]2O[C@H]2[C@@H](C)[C@H](C)O)[C@@H](O)[C@H]1O [MUP, mupirocin] | FA>RIF>CLR>RET>MEM>AZ>AZT>MUP | RIF>MUP=FA>AZ=RET>AZT>MEM=CLR | RET>RIF=AZ=CLR>MUP>MEM=FA>AZT | – |
| C=C[C@]1(C)C[C@@H](OC(=O)CS[C@@H]2C[C@H]3CC[C@@H](C2)N3C)[C@]2(C)[C@H](C)CC[C@]3(CCC(=O)[C@H]32)[C@@H](C)[C@@H]1O [RET, retapamulin] | FA>RIF>CLR>RET>MEM>AZ>AZT>MUP | RIF>MUP=FA>AZ=RET>AZT>MEM=CLR | RET>RIF=AZ=CLR>MUP>MEM=FA>AZT | MIC of antibiotic in the combination [3, 7]: 4 µg/mL; MIC reduction [3, 7]: 32 fold; MIC of antibiotic alone ([3]; Kp isolates, without SPR741): 128 µg/mL |
| CO[C@H]1/C=C/O[C@@]2(C)Oc3c(C)c(O)c4c(O)c(c(/C=N/N5CCN(C)CC5)c(O)c4c3C2=O)NC(=O)/C(C)=C\C=C\[C@H](C)[C@H](O)[C@@H](C)[C@@H](O)[C@@H](C)[C@H](OC(C)=O)[C@@H]1C [RIF, rifampicin] | – | – | – | maximum MIC reduction ([2]; Ec isolates, in combination with SPR741): > 2000 fold; MIC of antibiotic alone ([2]; Ec isolates, without SPR741): > 128 µg/mL |
| CC(=O)N[C@H](C(=O)N[C@H](CO)C(=O)N[C@H]1CCNC(=O)[C@H]([C@@H](C)O)NC(=O)[C@H](CCN)NC(=O)[C@H](CCN)NC(=O)[C@H](CC(C)C)NC(=O)[C@@H](Cc2ccccc2)NC(=O)[C@H](CCN)NC1=O)[C@@H](C)O [SPR741, Acetyl-Thr-dSer-cy[Dab-Dab-dPhe-Leu-Dab-Dab-Thr]] (Ac-T[dS][Dab][Dab][dF]L[Dab][Dab]T; lactam 3-C) | – | – | – | effect of SPR741 on MIC of antibiotics ([1]; MDR isolates of Ab): effectively reduced the MIC of currently utilized antibiotics; effect of SPR741 on MIC of antibiotics ([2]; MDR isolates of Ec): effectively reduced the MIC of currently utilized antibiotics; effect of SPR741 on MIC of antibiotics ([3]; MDR isolates of Kp): effectively reduced the MIC of currently utilized antibiotics; potentiation of antibiotics that are AcrAB-TolC substrates [5]: able to potentiate antibiotics that are substrates of AcrAB-TolC; sensitisation of bacteria to antibiotics [6]: increase the sensitivity of certain bacteria to Mupirocin, Azithromycin, Fusidic Acid, and Vancomycin |
